Results: patent publication US9078843B2, “Immunogenic fragments of T-cell receptor constant domains and peptides derived therefrom” (priority 2005, dated 2015)

Legend:
[1] = tested on: IgG in sera; assay: Antigen microarray, serum IgG binding to TCR gamma constant region peptides; design: species or system human; settings: for Antigen Binding (Mean Intensity) IgG: serum 1:5
From the text: (§1) The antigenicity of peptides derived from human T-cell receptor gamma-chain constant region (accession no: AAB63314; SEQ ID NO:173) was essayed using antigen array technology, as detailed below.
(§2) Serum samples: Blood samples were obtained by random availability from 12 healthy adults and from 9 adults newly diagnosed with lung cancer, before treatment. All samples were collected with informed consent and approval of the Helsinki committee of the Sheba Medical Center, Tel Hashomer, Israel. The blood samples were allowed to clot at room temperature. After centrifugation, sera were collected and stored at −20° C.
(§3) Antigen microarray: Antigens diluted in PBS were placed in 384-well plates at a concentration of 1 μg/μl. We used a robotic MicroGrid arrayer with solid spotting pins of 0.2 mm in diameter (BioRobotics, Cambridge, U.K.) to spot the antigens onto ArrayIt SuperEpoxi microarray substrate slides (TeleChem, Sunnyvale, Calif.). the antigens were spotted in replicates of 4, and the microarrays were blocked for 1 h at 37° C. with 1% bovine serum albumin, and incubated under a cover-slip overnight at 4° C. with a 1:5 dilution of the test serum in blocking buffer. The quantitative range of signal intensity of binding to each antigen spot was 0.01-65,000, and this range of detection made it possible to record reliable data with little dilution of test samples. The arrays were then washed and incubated for 1 hour at 37° C. with a 1:500 dilution of detection antibodies. Two detection antibodies were used: a goat anti-human IgG Cy3-conjugated antibody and a goat anti-human IgM Cy5-conjugated antibody, purchased from Jackson ImmunoResearch, West Grove, Pa. The arrays were washed again, spin-dried, and scanned with a ScanArray 4000× scanner (GSI Luminomics, Billerica, Mass.). The results were recorded as TIFF files. Image acquisition by laser and quantification were done as described (Quintana et al., 2004).
(§4) Data preprocessing and background filtering: Antigen reactivity was defined by the mean intensity of the 4 replicates of binding to that antigen on the microarray. We identified positive antibodies in the following way: To establish the minimum level of significant antibody binding, we calculated the mean reactivity level of 32 spots incubated with phosphate buffered saline (PBS) in place of an antigen on each microarray slide. A signal was scored as positive when it expressed intensity greater than the upper limit of the PBS control, which was defined as the mean intensity of the PBS spots plus 2-times the standard deviation. Signal intensity above the PBS background was considered positive antibody binding.
(§5) The presence of IgG and IgM in sera obtained from patients with lung cancer and from healthy controls was determined using the antigen microarray, as detailed above. The results, presented in Table 13, represent the mean reactivity of 12 control subjects and 9 lung cancer subjects.

[2] = tested on: IgM in sera; assay: Antigen microarray, serum IgM binding to TCR gamma constant region peptides; design: species or system human; settings: serum 1:5
From the text: as §1, §2, §3, §4, §5

[3] = tested on: adjuvant arthritis (AA); assay: Adjuvant arthritis (AA) after vaccination with recombinant proteins or peptides; format: in vivo, Lewis rats; settings: single ip dose of 100 μg protein or peptide in IFA, AA induced seven days later; FIG. 4
Description: AA was induced as described (Quintana et al 2002), using 1 mg per rat of heat-killed Mt strain H37Ra (Difco). Each experimental and control group contained at least 8 rats. The day of AA induction was designated as day 0, and disease severity was assessed by direct observation of all 4 limbs in each animal. A relative score between 0 and 4 was assigned to each limb, based on the degree of joint inflammation, redness and deformity; thus the maximum possible score for an individual animal was 16 (Quintana et al 2002). The mean AA score (±SEM) is shown for each experimental group. Arthritis was also quantified by measuring hind limb diameter with a caliper. Measurements were taken on the day of the induction of AA and 26 days later (at the peak of AA); the results are presented as the mean±SEM of the difference between the two values for all the animals in each group. The person who scored the disease was blinded to the identity of the groups. Experiments were repeated at least 3 times and produced similar results.
Female Lewis rats were immunized ip with a single dose of 100 μg of peptide or recombinant protein emulsified in IFA.
We studied the immune effects of vaccination with recombinant C1 (rβC1) or C2 (rβC2), or with C1/2-derived peptides (Table 1). Female Lewis rats were immunized with a single ip dose of 100 μg of protein or peptide in IFA, and seven days later AA was induced.

[4] = tested on: draining lymph node cells (LNC); assay: T-cell proliferation of lymph node cells from vaccinated rats ([methyl-3H]-thymidine, stimulation index); format: cell-based, Lewis rats; settings: for proliferative responses of LNC to PPD: LNC from peptide immunized rats; for T-cell responses of immunized rats to the immunizing peptide (immunogenicity): rats vaccinated with the peptide, FIG. 6B
Description: Unless otherwise stated, T-cell proliferation assays were performed at day 26 after the induction of AA, when the disease is at its peak, as previously described (Quintana et al 2002). Briefly, popliteal and inguinal lymph node cells (LNC), were cultured in quadruplicates in 200 μl round bottom microtiter wells (Costar Corp., Cambridge, USA) at 2×10^5 cells per well with or without antigen. The T-cell mitogen Concanavalin A (Con A) was used as a positive control for T-cell proliferation. Cultures were incubated for 96 hrs at 37° C. in a humidified atmosphere of 5% CO2. T-cell responses were detected by the incorporation of [methyl-3H]-thymidine (Amersham, Buckinghamshire, UK; 1 μCi/well), which was added to the wells for the last 18 hours. The stimulation index (SI) was computed as the ratio of the mean c.p.m. of antigen- or mitogen-containing wells to control wells cultured with medium alone. The results of T-cell proliferation experiments are shown as SI±SEM, T-cell responses with SI<2 were considered not significant.
To study the immune responses associated with the inhibition of AA by DNA vaccination with pβC1 or pβC2, we analyzed the T-cell responses of immunized rats 26 days after the induction of AA. We stimulated draining lymph node cells (LNC) in vitro with a collective of Mycobacterial antigens known to be associated with AA: HSP65, PPD and Mt176-190. The Mt176-190 peptide contains the 180-188 epitope of HSP65 described by van Eden et al which is recognized by HSP65-specific T-cell clones that can transfer AA (van Eden et al 1985). We also studied the immune response directed to recombinant βC1 and recombinant βC2, or to βC1/2 peptides predicted to bind the MHC class II molecule of the Lewis rat (see Table 1). Glutathione-S-transferase (GST) was included as a control antigen. […] 149 (MED12).
To study the effect of C1/2 vaccination on the immune response to C1/2 peptides and to the target antigens of AA, we vaccinated rats with rβC1 or rβC2, and then induced AA. At day 26, we removed the draining lymph nodes and measured the T-cell proliferative responses to peptides N12 (SEQ ID NO:147), MED12 (SEQ ID NO:149) or C2C (SEQ ID NO:152), or to the Mycobacterial antigens. […] Thus the C1/2 peptides are immunologically dominant.

[5] = HEALTHY CONTROLS, mean of 12 subjects
[6] = LUNG CANCER, mean of 9 subjects

Substance | Antigen Binding (Mean Intensity) IgG [1, 5] | Antigen Binding (Mean Intensity) IgG [1, 6] | Antigen Binding (Mean Intensity) IgM [2, 5] | Antigen Binding (Mean Intensity) IgM [2, 6] | severity of the disease (AA score) [3] | proliferative responses of LNC to PPD ([4]; FIG. 6A) | T-cell responses of immunized rats to the immunizing peptide (immunogenicity) [4] | response of antibodies to the peptide ([1]; antibodies from control subjects) | proliferative responses of LNC to mt180 and HSP65 ([4]; LNC from peptide-vaccinated rats, FIG. 6A)
VVYFAIITCCLLRRTAFCCN [SEQ ID NO:167] | 376 | 1928 | 548 | 512 |  |  |  |  | 
KPTIFLPSSWLTVPE [SEQ ID NO:164] | −240 | −114 | −24 | 86 |  |  |  |  | 
dspkpvtqnisaeawgr (DSPKPVTQNISAEAWGR; listed as Rattus norvegicus) [MED12] |  |  |  |  | significantly decreased | increased proliferative responses | significant T-cell responses |  | 
vtppkvslfepseaeia (VTPPKVSLFEPSEAEIA; listed as Rattus norvegicus) [N12] |  |  |  |  | significantly decreased | increased proliferative responses | significant T-cell responses |  | 
AYYMYLLLLLKSVVYFAIIT [SEQ ID NO:166] | 199 | 996 | 87 | 140 |  |  |  |  | 
KAGTYLCLLEKFFPDVIKI [SEQ ID NO:158] | 2233 | 2116 | 1753 | 2381 |  |  |  | responded | 
vlvsalvlmamvkkkns (VLVSALVLMAMVKKKNS; listed as Rattus norvegicus) [C2C] |  |  |  |  | significantly decreased | increased proliferative responses | significant T-cell responses |  | increased proliferative responses
DQEIIFPPIKT [SEQ ID NO:161] | −147 | 846 | 86 | 160 |  |  |  |  | 
KEHRCIVDTLLLQL [SEQ ID NO:165] | 95 | 1095 | 97 | 103 |  |  |  |  | 
